Reference: US20130324489A1, “NEW ANTIFUNGAL COMPOSITIONS” (DSM IP ASSETS B.V., priority 2011, published 2013)

Key:
Botrytis cinerea = test: In vitro antifungal activity, 96-well microtiter plates; type: cell-based; conditions: 1.25 ppm natamycin, 25° C.
Protocol: The following compositions were tested: […] After incubation of the microtiter plates at 25° C., the in vitro antifungal activity (%) of the individual active ingredients was assessed by calculating the reduction in mould growth observed in the presence of the active ingredient in comparison to the mould growth observed in the absence of the active ingredient. The expected antifungal activity (E in %) of the active ingredient combination was calculated according to the Colby equation (Colby, 1967): […] wherein X and Y are the observed antifungal activities (in %) of the individual active ingredients X and Y, respectively.

Penicillium italicum = test: as above; type: cell-based; conditions: 0.63 ppm natamycin, 5.0 ppm vinclozolin, 10 ppm procymidone, alone or natamycin + one of them, 25° C., day 3
Protocol: Subsequently, 100 μl of a Botrytis cinerea suspension prepared in PCB medium was used to inoculated each well with 2.5×10^3 spores/ml.
After incubation of the microtiter plates at 25° C., the in vitro antifungal activity (%) of the individual active ingredients was assessed by calculating the reduction in mould growth observed in the presence of the active ingredient in comparison to the mould growth observed in the absence of the active ingredient. The expected antifungal activity (E in %) of the active ingredient combination was calculated according to the Colby equation (Colby, 1967): […]
wherein X and Y are the observed antifungal activities (in %) of the individual active ingredients X and Y, respectively. If the observed antifungal activity (O in %) of the combination exceeds the expected antifungal activity (E in %) of the combination and the resulting synergy factor O/E is thus >1.0, the combined application of the active ingredients leads to a synergistic antifungal effect.
The experiment was conducted as described in Example 10, except for the fact that the following compositions were tested:
Furthermore, Penicillium italicum was used for inoculation. The antifungal activity (in %) of the individual and combined active ingredients was determined according to the method described in Example 10.

CC(C)NC(=O)N1CC(=O)N(c2cc(Cl)cc(Cl)c2)C1=O [Iprodione, iprodione]
Observed antifungal activity O (%) (Botrytis cinerea; 3.0 ppm iprodione or both, day 5): 50% | Observed antifungal activity O (%) (Botrytis cinerea; 8.0 ppm iprodione or both, day 12): 50%

C=CC1(C)OC(=O)N(c2cc(Cl)cc(Cl)c2)C1=O (stereo not drawn) [Vinclozolin, vinclozolin]
Observed antifungal activity O (%) (Penicillium italicum): 0% | Observed antifungal activity O (%) (Botrytis cinerea; 1.5 ppm vinclozolin, 1.25 ppm procymidone, alone or natamycin + one of them, day 3): 0% | Observed antifungal activity O (%) (Botrytis cinerea; 1.5 ppm vinclozolin, 1.25 ppm procymidone, alone or natamycin + one of them, day 6): 0% | Observed antifungal activity O (%) (Botrytis cinerea; 7.0 ppm vinclozolin, 2.0 ppm procymidone, alone or natamycin + one of them, day 10): 0%
